# Results published in article PMC9841524, “Structure-Based Rational Design of Small α-Helical Peptides with Broad-Spectrum Activity against Multidrug-Resistant Pathogens” (Journal of Medicinal Chemistry, 2022).
# Where no end group is shown, it is not given here.
# System: S. aureus (ATCC 29213)
# Test: MIC, standard microtiter dilution (CLSI)
# Format: cell-based
# Settings: broth microdilution (CLSI), CAMHB, 10^6 CFU/mL, 37 °C, 24 h; highest MIC of three independent experiments in triplicate
# Method: (§1) Description of the characteristics and growth conditions of various bacterial strains used in the study are provided in the Supporting Information (Table S3). Antibacterial susceptibility testing was carried out using a standard microtiter dilution method recommended by the clinical and laboratory standard institute (CLSI) and measured as a minimum inhibitory concentration (MIC), the lowest peptide concentration that inhibited bacterial growth. Briefly, the overnight grown cultures in the recommended broth for each bacterial strain were diluted in cation-adjusted Mueller Hinton Broth (CAMHB) to give an inoculum of 10^6 colony-forming units (CFU)/mL. A 2-fold serially diluted test peptide solution (100 μL) was added to the microtiter plates. After adding bacterial suspension (100 μL), the plates were incubated at 37 °C for 24 h, and the MICs were determined. The same protocol was used to determine the MICs in the presence of salts and serum except using the media supplemented with various cationic salts (150 mM NaCl, 4.5 mM KCl, 6 mM NH4Cl, 1 mM MgCl2, and 2 mM CaCl2) or 25% FBS. The data was acquired from three independent assays performed in triplicate.
# (§2) The bacterial strains employed in this study were obtained from the American Type Culture Collection (ATCC). Each strain was propagated as recommended by the ATCC, and each strain was stored as a frozen glycerol stock at -80°C. A bacterial colony was grown on the appropriate agar as indicated in Table S1 and was used to inoculate the appropriate broth. The culture was incubated at the appropriate conditions, as mentioned in Table S1. Following the incubation, the culture was diluted to an optical density 625 nm (OD625) of 0.1 in cation adjusted Mueller Hinton Broth (CAMHB), which is equivalent to 1 × 10^8 CFU/mL. The culture was further diluted to 1 × 10^6 CFU/mL, which was used to conduct the MIC determination assay. For the S. pneumoniae strains, CAMHB + 2.5% lysed horse blood was required for the assay. The strains with their […]
# (§3) Table S3. Description of the characteristics and growth conditions of various bacterial strains
row,Substance,"MIC, S. aureus (ATCC 29213) [µg/mL]"
1,RWWRRAWAR-NH2 [3e],> 100
2,RWWRRWAR-NH2 [2a],> 100
3,WRRWWRR-NH2 [1c],100

# Same assay, conditions: value in parentheses (μM); broth microdilution (CLSI), CAMHB, 37 °C, 24 h
row,Substance,"MIC, S. aureus (ATCC 29213) [µM]"
1,RWWRRAWAR-NH2 [3e],> 74.48
2,RWWRRWAR-NH2 [2a],> 78.65
3,WRRWWRR-NH2 [1c],83.30

# System: E. coli (ATCC 25922)
# Test: not given
# Settings: broth microdilution (CLSI), CAMHB, 10^6 CFU/mL, 37 °C, 24 h; highest MIC of three independent experiments in triplicate
# Method: as §1, §2, §3
row,Substance,"MIC, E. coli (ATCC 25922) [µg/mL]"
1,RWWRRAWAR-NH2 [3e],> 100
2,RWWRRWAR-NH2 [2a],> 100
3,WRRWWRR-NH2 [1c],> 100

# Same assay, conditions: value in parentheses (μM); broth microdilution (CLSI), CAMHB, 37 °C, 24 h
row,Substance,"MIC, E. coli (ATCC 25922) [µM]"
1,RWWRRAWAR-NH2 [3e],> 74.48
2,RWWRRWAR-NH2 [2a],> 78.65
3,WRRWWRR-NH2 [1c],> 83.30

# System: MRSA (ATCC BAA-1556)
# Test: not given
# Settings: broth microdilution (CLSI), CAMHB, 10^6 CFU/mL, 37 °C, 24 h; highest MIC of three independent experiments in triplicate
# Method: as §1, §2, §3
row,Substance,"MIC, MRSA (ATCC BAA-1556) [µg/mL]"
1,RWWRRAWAR-NH2 [3e],> 100
2,RWWRRWAR-NH2 [2a],> 100
3,WRRWWRR-NH2 [1c],100

# Same assay, conditions: value in parentheses (μM); broth microdilution (CLSI), CAMHB, 37 °C, 24 h
row,Substance,"MIC, MRSA (ATCC BAA-1556) [µM]"
1,RWWRRAWAR-NH2 [3e],> 74.48
2,RWWRRWAR-NH2 [2a],> 78.65
3,WRRWWRR-NH2 [1c],83.30

# System: P. aeruginosa (ATCC 27883)
# Test: MIC, standard microtiter dilution (CLSI)
# Format: cell-based, Pseudomonas aeruginosa
# Settings: broth microdilution (CLSI), CAMHB, 10^6 CFU/mL, 37 °C, 24 h; highest MIC of three independent experiments in triplicate
# Method: as §1, §2, §3
row,Substance,"MIC, P. aeruginosa (ATCC 27883) [µg/mL]"
1,RWWRRAWAR-NH2 [3e],> 100
2,RWWRRWAR-NH2 [2a],> 100
3,WRRWWRR-NH2 [1c],> 100

# Same assay, conditions: value in parentheses (μM); broth microdilution (CLSI), CAMHB, 37 °C, 24 h
row,Substance,"MIC, P. aeruginosa (ATCC 27883) [µM]"
1,RWWRRAWAR-NH2 [3e],> 74.48
2,RWWRRWAR-NH2 [2a],> 78.65
3,WRRWWRR-NH2 [1c],> 83.30

# System: K. pneumoniae (ATCCBAA-1705)
# Test: MIC, standard microtiter dilution (CLSI)
# Format: cell-based, Klebsiella pneumoniae
# Settings: broth microdilution (CLSI), CAMHB, 10^6 CFU/mL, 37 °C, 24 h; highest MIC of three independent experiments in triplicate
# Method: as §1, §2, §3
row,Substance,"MIC, K. pneumoniae (ATCCBAA-1705) [µg/mL]"
1,RWWRRAWAR-NH2 [3e],> 100
2,RWWRRWAR-NH2 [2a],> 100
3,WRRWWRR-NH2 [1c],> 100

# Same assay, conditions: value in parentheses (μM); broth microdilution (CLSI), CAMHB, 37 °C, 24 h
row,Substance,"MIC, K. pneumoniae (ATCCBAA-1705) [µM]"
1,RWWRRAWAR-NH2 [3e],> 74.48
2,RWWRRWAR-NH2 [2a],> 78.65
3,WRRWWRR-NH2 [1c],> 83.30

# System: human red blood cells (hRBCs)
# Test: Hemolytic assay
# Format: cell-based
# Settings: hRBC suspension 4% in PBS, 2 h, 37 °C, hemoglobin release at 567 nm; 1% Triton X-100 = 100%
# Method: The hemolytic activity of all peptides (1a–8d) was determined using hRBC. The assay was conducted by adding 75 μL of 2-fold serially diluted peptides to 75 μL of hRBC suspension (4% in PBS). The plates were incubated for 2 h at 37 °C without agitation. In order to determine the hemolysis at each tested concentration of peptides, the plate was centrifuged, and 100 μL of the supernatant was transferred to another 96-well plate to determine hemoglobin release spectrophotometrically at 567 nm. Percent hemolysis was calculated by the following formula [drawing 1] where A represents the absorbance of the peptide sample at 567 nm and A0 and At represent zero percent and 100% hemolysis determined in phosphate buffer saline and 1% Triton X-100, respectively.
row,Substance,HC50 (concentration at which 50% hemolysis was observed) [µg/mL]
1,RWWRRAWAR-NH2 [3e],> 500
2,RWWRRWAR-NH2 [2a],> 500
3,WRRWWRR-NH2 [1c],> 500

# Same assay, conditions: value in parentheses (μM); hRBC 4% in PBS, 2 h, 37 °C, 567 nm
row,Substance,HC50 (concentration at which 50% hemolysis was observed) [µM]
1,RWWRRAWAR-NH2 [3e],> 372.42
2,RWWRRWAR-NH2 [2a],> 393.23
3,WRRWWRR-NH2 [1c],> 416.52

# System: not listed separately
# Test: CD spectroscopy, helicity;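 as to % of helicity induced by Liposomes: share of the total helicity with liposomes gained over the same peptide in PBS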;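 as to % of helicity induced by TFE: share of the total helicity in TFE gained over the same peptide in PBS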
# Format: physicochemical
# Set-up: key to Δ[θ]222 induced by TFE / Δ[θ]222 induced by Liposomes: mean residue molar ellipticity, mdeg cm2/(dmol × res)
# Settings: CD at 222 nm, 25 °C, aqueous buffer containing 50% TFE
# Method: The CD spectra of peptides were recorded using a Jasco J-1500 CD spectrophotometer (Jasco, Easton, MD) at 25 °C with a 1 mm path length cell. Wavelengths from 190 to 260 nm were scanned with 1.0 nm step resolution, 100 nm/min speed, 0.4 s response time, and 1 nm bandwidth. CD spectra of the peptides were collected and averaged over three scans in 10 mM sodium phosphate buffer (pH 7.2), helix-inducing solvent 50% TFE (v/v), and bacterial mimic liposomes (75 μM lipid). Spectra were corrected by subtracting a baseline spectrum containing only buffer or 50% TFE or liposomes. The mean residue molar ellipticity was calculated using the formula [drawing 3] where Ab222 is the absorbance observed at 222 nm, MRW is the mean residue molecular weight, C is the concentration in mg/mL, and L is the path length.
# Table S1. RP-HPLC retention times and CD spectroscopy analysis of the selected peptides Peptide tR (min)a [θ]222b Δ[θ]222 induced by % of helicity inducedc by PBS TFE Liposomes TFE Liposomes TFE Liposomes […]
# atR (min) denotes the retention time at 25°C by RP-HPLC. bThe mean residue molar ellipticity [θ] 222 (mdeg cm2/(dmol × res)) at 222 nm was measured at 25 °C in phosphate buffer saline (PBS, pH 7.0), in aqueous buﬀer containing 50% TFE (TFE), or in presence of bacterial membrane mimicking liposomes (peptide:lipid […]
# c% helix induced is the increase in the molar ellipticity at 222 nm (in percentage) of a peptide in the presence of TFE or liposomes.
row,Substance,"[θ]222 mean residue molar ellipticity, TFE"
1,RWWRRAWAR-NH2 [3e],-8008 mdeg cm2/(dmol × res)
2,RWWRRWAR-NH2 [2a],-6217 mdeg cm2/(dmol × res)
3,WRRWWRR-NH2 [1c],-4646 mdeg cm2/(dmol × res)

# Same assay, conditions: CD at 222 nm, 25 °C, bacterial membrane mimicking liposomes, peptide:lipid molar ratio 1:1.05
row,Substance,"[θ]222 mean residue molar ellipticity, Liposomes"
1,RWWRRAWAR-NH2 [3e],-4987 mdeg cm2/(dmol × res)
2,RWWRRWAR-NH2 [2a],-4556 mdeg cm2/(dmol × res)
3,WRRWWRR-NH2 [1c],-3092 mdeg cm2/(dmol × res)

# Same assay, conditions: CD at 222 nm, 25 °C, phosphate buffer saline pH 7.0
row,Substance,"[θ]222 mean residue molar ellipticity, PBS"
1,RWWRRAWAR-NH2 [3e],-4113 mdeg cm2/(dmol × res)
2,RWWRRWAR-NH2 [2a],-4051 mdeg cm2/(dmol × res)
3,WRRWWRR-NH2 [1c],-2638 mdeg cm2/(dmol × res)

# Same assay, conditions: difference to PBS; 50% TFE
row,Substance,Δ[θ]222 induced by TFE
1,RWWRRAWAR-NH2 [3e],-3895
2,RWWRRWAR-NH2 [2a],-2165
3,WRRWWRR-NH2 [1c],-2008

# Same assay, conditions: difference to PBS; bacterial membrane mimicking liposomes
row,Substance,Δ[θ]222 induced by Liposomes
1,RWWRRAWAR-NH2 [3e],-874
2,RWWRRWAR-NH2 [2a],-505
3,WRRWWRR-NH2 [1c],-454

# Same assay, conditions: increase in molar ellipticity at 222 nm in the presence of 50% TFE
row,Substance,% of helicity induced by TFE [%]
1,RWWRRAWAR-NH2 [3e],48.63
2,RWWRRWAR-NH2 [2a],34.83
3,WRRWWRR-NH2 [1c],43.22

# Same assay, conditions: increase in molar ellipticity at 222 nm in the presence of liposomes
row,Substance,% of helicity induced by Liposomes [%]
1,RWWRRAWAR-NH2 [3e],17.53
2,RWWRRWAR-NH2 [2a],11.08
3,WRRWWRR-NH2 [1c],14.68
